In ChEMBL document CHEMBL1144249, “Identification of a novel class of androgen receptor antagonists based on the bicyclic-1H-isoindole-1,3(2H)-dione nucleus” (Bioorg Med Chem Lett, 2005):

Experiments:
Androgen receptor [1] = target: T1, Androgen receptor (Homo sapiens, UniProt P10275); test: Inhibition of [3H]DHT binding to androgen receptor of MDA-453 cells
T1 sequence (P10275 whole entry): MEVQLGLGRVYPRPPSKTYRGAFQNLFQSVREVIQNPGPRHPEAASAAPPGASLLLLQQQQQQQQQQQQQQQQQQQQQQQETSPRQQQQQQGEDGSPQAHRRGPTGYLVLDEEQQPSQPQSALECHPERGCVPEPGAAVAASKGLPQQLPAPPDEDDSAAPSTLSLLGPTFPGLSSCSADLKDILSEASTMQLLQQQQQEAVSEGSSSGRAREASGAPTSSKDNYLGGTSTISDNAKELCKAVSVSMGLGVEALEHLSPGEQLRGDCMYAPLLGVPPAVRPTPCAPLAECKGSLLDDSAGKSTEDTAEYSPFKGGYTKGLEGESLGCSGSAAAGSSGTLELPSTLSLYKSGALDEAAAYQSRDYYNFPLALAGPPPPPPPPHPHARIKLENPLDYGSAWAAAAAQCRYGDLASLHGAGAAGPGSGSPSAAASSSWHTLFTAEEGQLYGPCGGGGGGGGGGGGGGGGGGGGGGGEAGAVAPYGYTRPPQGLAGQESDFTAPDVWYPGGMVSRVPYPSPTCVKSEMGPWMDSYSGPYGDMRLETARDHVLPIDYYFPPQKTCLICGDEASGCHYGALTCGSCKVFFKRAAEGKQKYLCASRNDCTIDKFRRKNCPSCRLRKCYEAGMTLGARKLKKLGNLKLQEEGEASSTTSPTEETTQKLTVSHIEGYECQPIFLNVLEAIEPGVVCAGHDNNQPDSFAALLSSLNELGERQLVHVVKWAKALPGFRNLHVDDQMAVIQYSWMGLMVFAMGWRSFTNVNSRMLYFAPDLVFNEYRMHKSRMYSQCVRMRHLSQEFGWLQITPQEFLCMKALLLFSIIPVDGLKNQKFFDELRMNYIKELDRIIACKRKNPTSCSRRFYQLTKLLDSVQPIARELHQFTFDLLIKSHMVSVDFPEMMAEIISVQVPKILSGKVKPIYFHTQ

Androgen receptor [2] = target: T2, Androgen receptor (Homo sapiens, UniProt P10275, T878A); test: Inhibition of [3H]-DHT binding to T877A androgen receptor of LNCaP cells
Androgen receptor [3] = target: T1, Androgen receptor
Description: Inhibition of human androgen receptor of breast carcinoma MDA-453 cells in reporter gene assay

Androgen receptor [4] = target: T2, Androgen receptor
Description: Inhibition of T877A androgen receptor of human prostate cancer cells in reporter gene assay

Androgen receptor [5] = target: Androgen receptor (Homo sapiens, UniProt P10275, L702H/T878A); format: functional, cell-based; conditions: mdamb-pca2b
Androgen receptor [6] = target: T2, Androgen receptor; test: Activation of T877A androgen receptor of human prostate cancer LNCap cells in reporter gene assay; format: functional, cell-based

Chain of Androgen receptor (Homo sapiens, UniProt P10275, L702H/T878A) (P10275 whole entry L702H/T878A): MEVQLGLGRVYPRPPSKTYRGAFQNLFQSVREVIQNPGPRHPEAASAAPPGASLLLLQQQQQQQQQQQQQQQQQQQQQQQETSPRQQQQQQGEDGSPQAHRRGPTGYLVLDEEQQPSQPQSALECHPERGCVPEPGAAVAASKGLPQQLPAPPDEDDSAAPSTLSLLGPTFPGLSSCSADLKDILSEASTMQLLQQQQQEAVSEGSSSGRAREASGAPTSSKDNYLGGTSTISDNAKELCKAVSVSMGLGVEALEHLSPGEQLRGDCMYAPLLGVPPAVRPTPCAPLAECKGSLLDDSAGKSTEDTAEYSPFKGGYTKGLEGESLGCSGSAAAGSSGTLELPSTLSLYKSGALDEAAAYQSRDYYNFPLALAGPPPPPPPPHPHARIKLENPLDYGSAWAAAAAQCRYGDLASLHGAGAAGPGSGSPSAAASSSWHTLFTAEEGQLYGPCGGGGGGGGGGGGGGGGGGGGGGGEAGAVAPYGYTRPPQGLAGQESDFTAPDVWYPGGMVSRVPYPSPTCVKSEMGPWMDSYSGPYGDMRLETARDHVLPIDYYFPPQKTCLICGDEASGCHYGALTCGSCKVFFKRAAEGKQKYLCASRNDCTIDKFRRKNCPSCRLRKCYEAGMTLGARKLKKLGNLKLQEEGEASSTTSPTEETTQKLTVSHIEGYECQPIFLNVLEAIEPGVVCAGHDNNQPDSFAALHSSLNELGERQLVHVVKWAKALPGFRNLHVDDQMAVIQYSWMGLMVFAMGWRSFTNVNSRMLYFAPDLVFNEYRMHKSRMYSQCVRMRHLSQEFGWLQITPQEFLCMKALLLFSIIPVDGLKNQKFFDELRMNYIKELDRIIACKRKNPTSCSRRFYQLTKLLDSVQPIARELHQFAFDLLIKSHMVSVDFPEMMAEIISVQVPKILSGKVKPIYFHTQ
T2 sequence (P10275 whole entry T878A): as the sequence (P10275 whole entry L702H/T878A) above, with H702L counted along it

Row | Compound | Ki (Androgen receptor [1]) [nM] | Ki (Androgen receptor [2]) [nM] | IC50 (Androgen receptor [3]) [nM] | IC50 (Androgen receptor [4]) [nM] | IC50 (Androgen receptor [5]) | Agonist activity (qualitative) (Androgen receptor [6]) | Ki (Androgen receptor [2]; lncap) [nM] | IC50 (Androgen receptor [6])
1 | O=C1[C@@H]2C3C=CC(C3)[C@@H]2C(=O)N1c1cccc(C(F)(F)F)c1 | 632 | 7 | 744 | 35 | – | – | – | –
2 | O=C1[C@@H]2C3C=CC(C3)[C@@H]2C(=O)N1c1cc(Cl)cc(Cl)c1 | 158 | 6 | 307 | 41 | – | – | – | –
3 | O=C1[C@@H]2C3C=CC(C3)[C@@H]2C(=O)N1c1cc(C(F)(F)F)cc(C(F)(F)F)c1 | 401 | 24 | 1750 | 72 | – | – | – | –
4 | O=C1[C@@H]2C3C=CC(C3)[C@@H]2C(=O)N1c1ccc(F)c(Cl)c1 | – | 2 | 517 | 33 | – | – | – | –
5 | O=C1[C@@H]2C3C=CC(C3)[C@@H]2C(=O)N1c1ccc([N+](=O)[O-])c2ccccc12 | 1 | 0.5 | > 5 | – | Agonist | Agonist | – | –
6 | O=C1[C@@H]2C3C=CC(C3)[C@@H]2C(=O)N1c1ccc2ccccc2c1 | 284 | 11 | 1210 | 84 | – | – | – | –
7 | O=C1[C@@H]2C3C=CC(C3)[C@@H]2C(=O)N1c1ccc2cccnc2c1 | – | 13 | 1040 | 52 | – | – | – | –
8 | O=C1[C@@H]2C3C=CC(C3)[C@@H]2C(=O)N1c1ccc([N+](=O)[O-])cc1 | 192 | 12 | 664 | 30 | – | – | – | –
9 | Cc1cc(N2C(=O)[C@@H]3C4C=CC(C4)[C@@H]3C2=O)ccc1Br | 125 | 3.6 | 220 | – | Agonist | Agonist | – | –
10 | O=C1[C@@H]2C3CCC(C3)[C@@H]2C(=O)N1c1ccc2ccccc2c1 | – | 11 | 1200 | 84 | – | – | – | –
11 | O=C1[C@@H]2C3C=CC(C3)[C@@H]2C(=O)N1c1ccc(Br)c(C(F)(F)F)c1 | 46 | 0.6 | 146 | – | Agonist | Agonist | – | –
12 | Cc1ccc(N2C(=O)[C@@H]3C4C=CC(C4)[C@@H]3C2=O)cc1C | 400 | 3.4 | 2010 | 10 | – | – | – | –
13 | O=C1[C@@H]2C3C=CC(C3)[C@@H]2C(=O)N1c1ccc([N+](=O)[O-])c(C(F)(F)F)c1 | 55 | 5 | 119 | – | Agonist | Agonist | – | –
14 | O=C1[C@@H]2C3C=CC(C3)[C@@H]2C(=O)N1c1ccc(O)c2ncccc12 | 162 | 32 | 418 | 1790 | – | – | – | –
15 | O=C1[C@@H]2C3CCC(C3)[C@@H]2C(=O)N1c1cccc(C(F)(F)F)c1 (stereo in doubt; 12) | 319 | 3.4 | 127 | 7 | – | – | – | –
16 | O=C1[C@@H]2C3CCC(C3)[C@@H]2C(=O)N1c1cccc(C(F)(F)F)c1 (stereo in doubt; 13) | – | 2 | 317 | 12 | – | – | – | –
17 | O=C1[C@@H]2C3CCC(C3)[C@@H]2C(=O)N1c1ccc([N+](=O)[O-])c(C(F)(F)F)c1 (stereo in doubt; 15) | 5 | 2 | 12 | – | Agonist | Agonist | – | –
18 | O=C1[C@@H]2C3CCC(C3)[C@@H]2C(=O)N1c1ccc([N+](=O)[O-])c(C(F)(F)F)c1 (stereo in doubt; 16) | – | – | – | – | – | – | 2 | –
19 | CC(C)(O)C(=O)Nc1ccc([N+](=O)[O-])c(C(F)(F)F)c1 [HYDROXYFLUTAMIDE] | – | – | – | – | Agonist | – | – | Agonist
